How the values were obtained:
[1] = system: Splenocyte; assay: Immunosuppressive activity in BALB/c mouse splenocytes assessed as inhibition of concanavalin A-stimulated T-cell proliferation incubated for 48 hrs by MTT assay; assay type: functional, cell-based
[2] = system: Splenocyte; assay: Immunosuppressive activity in BALB/c mouse splenocytes assessed as inhibition of LPS-stimulated B-cell proliferation incubated for 48 hrs by MTT assay; assay type: functional, cell-based
[3] = system: Splenocyte; assay: Cytotoxicity against BALB/c mouse splenocytes at 50 uM incubated for 48 hrs by MTT assay; assay type: cell-based
[4] = system: T-cell; assay: Induction of apoptosis in ConA-induced mouse splenic T cells assessed as early apoptotic cells at 5 uM after 48 hrs by Annexin V-FITC/propidium iodide staining based flow cytometry analysis (reference value: 6.9 %); assay type: functional
[5] = system: T-cell; assay: Induction of apoptosis in ConA-induced mouse splenic T cells assessed as late apoptotic cells at 5 uM after 48 hrs by Annexin V-FITC/propidium iodide staining based flow cytometry analysis (reference value: 0.4 %); assay type: functional
[6] = system: T-cell; assay: Induction of apoptosis in ConA-induced mouse splenic T cells assessed as early apoptotic cells at 10 uM after 48 hrs by Annexin V-FITC/propidium iodide staining based flow cytometry analysis (reference value: 6.9 %); assay type: functional
[7] = system: T-cell; assay: Induction of apoptosis in ConA-induced mouse splenic T cells assessed as late apoptotic cells at 10 uM after 48 hrs by Annexin V-FITC/propidium iodide staining based flow cytometry analysis (reference value: 0.4 %); assay type: functional
[8] = system: T-cell; assay: Induction of apoptosis in ConA-induced mouse splenic T cells assessed as early apoptotic cells at 20 uM after 48 hrs by Annexin V-FITC/propidium iodide staining based flow cytometry analysis (reference value: 6.9 %); assay type: functional
[9] = system: T-cell; assay: Induction of apoptosis in ConA-induced mouse splenic T cells assessed as late apoptotic cells at 20 uM after 48 hrs by Annexin V-FITC/propidium iodide staining based flow cytometry analysis (reference value: 0.4 %); assay type: functional
[10] = system: T-cell; assay: Induction of apoptosis in ConA-induced mouse splenic T cells assessed as increase in Bax protein expression after 48 hrs by Western blotting analysis; assay type: functional, cell-based; conditions: dose 5-20 µM
[11] = system: T-cell; assay: Induction of apoptosis in ConA-induced mouse splenic T cells assessed as increase in cytochrome C protein expression after 48 hrs by Western blotting analysis; assay type: functional, cell-based; conditions: dose 5-20 µM
[12] = system: T-cell; assay: Induction of apoptosis in ConA-induced mouse splenic T cells assessed as increase in cleaved caspase 3 protein expression after 48 hrs by Western blotting analysis; assay type: functional, cell-based; conditions: dose 5-20 µM
[13] = system: T-cell; assay: Induction of apoptosis in ConA-induced mouse splenic T cells assessed as increase in cleaved caspase 9 protein expression after 48 hrs by Western blotting analysis; assay type: functional, cell-based; conditions: dose 5-20 µM
[14] = system: T-cell; assay: Induction of apoptosis in ConA-induced mouse splenic T cells assessed as decrease in Bcl-2 protein expression after 48 hrs by Western blotting analysis; assay type: functional, cell-based; conditions: dose 5-20 µM
[15] = system: T-cell; assay: Induction of apoptosis in ConA-induced mouse splenic T cells assessed as decrease in Mcl-1 protein expression after 48 hrs by Western blotting analysis; assay type: functional, cell-based; conditions: dose 5-20 µM
[16] = system: T-cell; assay: Induction of apoptosis in ConA-induced mouse splenic T cells assessed as decrease in Bcl-xL protein expression after 48 hrs by Western blotting analysis; assay type: functional, cell-based; conditions: dose 5-20 µM
[17] = system: T-cell; assay: Induction of apoptosis in ConA-induced mouse splenic T cells assessed as downregulation of JNK phosphorylation after 48 hrs by Western blotting analysis; assay type: functional, cell-based; conditions: dose 5-20 µM
[18] = system: T-cell; assay: Induction of apoptosis in ConA-induced mouse splenic T cells assessed as early apoptotic cells at 1 uM after 48 hrs by Annexin V-FITC/propidium iodide staining based flow cytometry analysis (reference value: 7.1 %); assay type: functional
[19] = system: T-cell; assay: Induction of apoptosis in ConA-induced mouse splenic T cells assessed as late apoptotic cells at 1 uM after 48 hrs by Annexin V-FITC/propidium iodide staining based flow cytometry analysis (reference value: 0.6 %); assay type: functional
[20] = system: T-cell; assay: Induction of apoptosis in ConA-induced mouse splenic T cells assessed as early apoptotic cells at 5 uM after 48 hrs by Annexin V-FITC/propidium iodide staining based flow cytometry analysis (reference value: 7.1 %); assay type: functional
[21] = system: T-cell; assay: Induction of apoptosis in ConA-induced mouse splenic T cells assessed as late apoptotic cells at 5 uM after 48 hrs by Annexin V-FITC/propidium iodide staining based flow cytometry analysis (reference value: 0.6 %); assay type: functional
[22] = system: T-cell; assay: Induction of apoptosis in ConA-induced mouse splenic T cells assessed as early apoptotic cells at 15 uM after 48 hrs by Annexin V-FITC/propidium iodide staining based flow cytometry analysis (reference value: 7.1 %); assay type: functional
[23] = system: T-cell; assay: Induction of apoptosis in ConA-induced mouse splenic T cells assessed as late apoptotic cells at 15 uM after 48 hrs by Annexin V-FITC/propidium iodide staining based flow cytometry analysis (reference value: 0.6 %); assay type: functional

| Compound | IC50 [1] [µM] | IC50 [2] [µM] | Activity [3] | further results |
| --- | --- | --- | --- | --- |
| COc1cc(O)c2c(c1)/C=C/CC[C@H](O)[C@H](O)CCC[C@H](C)OC2=O | > 50 | > 50 | Non-Toxic | – |
| COc1cc(O)c2c(c1)/C=C/C[C@H](O)[C@H](O)C(=O)/C=C/C[C@H](C)OC2=O | 6 | 6.2 | Non-Toxic | – |
| COc1cc(O)c2c(c1)/C=C/C[C@H](O)[C@@H](O)[C@@H](O)CCC[C@H](C)OC2=O | > 50 | > 50 | Non-Toxic | – |
| COc1cc(O)c2c(c1)/C=C/CCC(=O)[C@@H](O)CCC[C@H](C)OC2=O | > 50 | > 50 | Non-Toxic | – |
| C[C@H](O)C/C=C/[C@@H]1CCCC(=O)Cc2cc(O)cc(O)c2C(=O)O1 | 10.6 | 10.3 | Non-Toxic | Activity [4]: 12.1%; Activity [5]: 26.2%; Activity [6]: 11%; Activity [7]: 37.2%; Activity [8]: 8.9%; Activity [9]: 55.8%; Activity [10]: Dose-Dependent Effect; Activity [11]: Dose-Dependent Effect; Activity [12]: Dose-Dependent Effect; Activity [13]: Dose-Dependent Effect; Activity [14]: Dose-Dependent Effect; Activity [15]: Dose-Dependent Effect; Activity [16]: Dose-Dependent Effect; Activity [17]: Dose-Dependent Effect |
| COc1cc(O)c2c(c1)/C=C/C[C@@H](O)[C@H](O)C(=O)/C=C/C[C@H](C)OC2=O | 11.4 | 6.8 | Non-Toxic | – |
| COc1cc(O)c2c(c1)/C=C/C[C@H](O)[C@@H](O)C(=O)CCC[C@H](C)OC2=O | > 50 | > 50 | Non-Toxic | – |
| COc1cc(O)c2c(c1)/C=C/CC[C@H](O)C(=O)CCC[C@H](C)OC2=O | > 50 | > 50 | Non-Toxic | – |
| C[C@H]1C/C=C/[C@@H](O)[C@@H](O)CC/C=C/c2cc(O)cc(O)c2C(=O)O1 [AIGIALOMYCIN D] | 16.3 | 18.4 | Non-Toxic | – |
| COc1cc(O)c2c(c1)/C=C/C[C@H](O)[C@H](O)C(=O)CCC[C@H](C)OC2=O | 7.4 | 6.4 | Non-Toxic | Activity [18]: 9.1%; Activity [19]: 26.5%; Activity [20]: 5.8%; Activity [21]: 32.9%; Activity [22]: 4.6%; Activity [23]: 59.1% |
| COc1cc(O)c2c(c1)/C=C/C[C@@H](O)[C@@H](O)C(=O)/C=C/C[C@H](C)OC2=O | 15.2 | 11.8 | Non-Toxic | – |
| COc1cc(O)c2c(c1)/C=C/C[C@@H](O)[C@@H](O)C(=O)CCC[C@H](C)OC2=O | 16.5 | 14.6 | Non-Toxic | – |
| C[C@H](O)CCC[C@@H]1CCCC(=O)Cc2cc(O)cc(O)c2C(=O)O1 | > 50 | > 50 | Non-Toxic | – |
| COc1c(C)c2c(c(O)c1C/C=C(\C)CCC(=O)OCCN1CCOCC1)C(=O)OC2 [MYCOPHENOLATE MOFETIL] | – | 0.5 | – | – |
| COc1cc(O)c2c(c1)/C=C/C[C@H](O)[C@@H](O)C(=O)/C=C/C[C@H](C)OC2=O | 24.1 | 29.1 | Non-Toxic | – |
| COc1cc(O)c2c(c1)/C=C/C[C@H](O)[C@H](O)C(=O)C[C@H](O)C[C@H](C)OC2=O | 18.8 | 21.9 | Non-Toxic | – |
| COc1cc(O)c2c(c1)/C=C/CCC(=O)[C@H](O)CCC[C@H](C)OC2=O | 25.1 | 27.7 | Non-Toxic | – |
| COc1cc(O)c2c(c1)[C@H]1O[C@@H]1C[C@H](O)[C@H](O)C(=O)CCC[C@H](C)OC2=O | 8.1 | 8.5 | Non-Toxic | – |
| C[C@H](O)C[C@@H]1CCCCCc2cc(O)cc(O)c2C(=O)O1 | > 50 | > 50 | Non-Toxic | – |
| COc1cc(O)c2c(c1)/C=C/C[C@H](O)C(=O)CCCC[C@H](C)OC2=O | > 50 | > 50 | Non-Toxic | – |

Reference: ChEMBL document CHEMBL4813949, “Hypothemycin-Type Resorcylic Acid Lactones with Immunosuppressive Activities from a Podospora sp” (J Nat Prod, 2021)
